ChEMBL document CHEMBL4680170, “Anticancer activity of 4'-phenyl-2,2':6',2″-terpyridines - behind the metal complexation” (Eur J Med Chem, 2020)
Activity calls are given as the source filed them. The rule behind the calls is not given here.

Columns and labels:
[1] = system: U-251; assay: Antiproliferative activity against human U251 cells assessed as reduction in cell viability measured after 72 hrs by MTS assay; format: functional, cell-based; settings: U-251, 72 h
[2] = system: MCF7; assay: Antiproliferative activity against human MCF-7 cells assessed as reduction in cell viability measured after 72 hrs by MTS assay; format: functional, cell-based; settings: MCF7, 72 h
[3] = system: PANC-1; assay: Antiproliferative activity against human PANC-1 cells assessed as reduction in cell viability measured after 72 hrs by MTS assay; format: functional, cell-based; settings: PANC-1, 72 h
[4] = system: Calf thymus DNA; assay: Binding affinity to calf thymus DNA assessed as DNA intercalation by measuring hypochromic shift incubated for 1.5 hrs by spectrophotometric analysis; format: tissue-based; settings: Bos taurus
[5] = system: A549; assay: Antiproliferative activity against human A549 cells assessed as reduction in cell viability measured after 72 hrs by MTS assay; format: functional, cell-based; settings: A549, 72 h
[6] = system: MCF7; assay: Induction of apoptosis in human MCF-7 cells assessed as proportion of early apoptotic cells at 2.5 uM incubated for 48 hrs by Annexin V Muse cell analyzer based flow cytometry (reference value: 3.05%); format: functional
[7] = system: MCF7; assay: Induction of apoptosis in human MCF7 cells assessed as early apoptotic cells by measuring chromatin condensation and nuclear fragmentation at 5 uM incubated for 24 hrs by AO/EB staining based fluorescence microscopy; format: functional, cell-based
[8] = system: DNA; assay: Induction of Escherichia coli supercoiled pUC19 plasmid DNA cleavage assessed as open circular form formation at 50 uM incubated for 60 mins by agarose gel electrophoresis analysis; format: nucleic-acid assay
[9] = system: MCF7; assay: Induction of apoptosis in human MCF-7 cells assessed as proportion of late apoptotic cells at 1 uM incubated for 48 hrs by Annexin V Muse cell analyzer based flow cytometry (reference value: 2.3%); format: functional
[10] = system: MCF7; assay: Induction of apoptosis in human MCF-7 cells assessed as proportion of necrotic cells at 2.5 uM incubated for 48 hrs by Annexin V Muse cell analyzer based flow cytometry (reference value: 0.45%); format: functional
[11] = Drug uptake in human MCF7 cells mitochondria at 25 uM incubated for 2 hrs by MitoTracker Orange/LysoTracker staining based fluorescence microscopy; format: ADME; settings: mcf7, 2 h
[12] = system: MCF7; assay: Induction of apoptosis in human MCF-7 cells assessed as proportion of late apoptotic cells at 2.5 uM incubated for 48 hrs by Annexin V Muse cell analyzer based flow cytometry (reference value: 2.3%); format: functional
[13] = system: MCF7; assay: Induction of apoptosis in human MCF7 cells assessed as increase in AIP protein expression at 2.5 uM incubated for 24 hrs by immunoblot analysis; format: functional, cell-based
[14] = system: MCF7; assay: Induction of cell cycle arrest in human MCF-7 cells assessed as accumulation at S phase at 1 uM incubated for 24 hrs by Muse cell analyzer based flow cytometry (reference value: 11.1%); format: functional
[15] = system: MCF7; assay: Induction of apoptosis in human MCF7 cells assessed as p53 activation at 2.5 uM incubated for 24 hrs by immunoblot analysis; format: functional, cell-based
[16] = system: MCF7; assay: Induction of cell cycle arrest in human MCF-7 cells assessed as accumulation at G0/G1 phase at 1 uM incubated for 24 hrs by Muse cell analyzer based flow cytometry (reference value: 47.4%); format: functional
[17] = system: MCF7; assay: Antiproliferative activity against human MCF-7 cells assessed as reduction in cell viability measured after 72 hrs in presence of FeCl3 by MTS assay; format: functional, cell-based; settings: MCF7, 72 h
[18] = system: MCF7; assay: Potency index, ratio of oxaliplatin IC50 to test compound IC50 for anticancer activity against human MCF7 cells measured after 72 hrs by MTS assay; format: functional
[19] = system: MCF7; assay: Induction of apoptosis in human MCF-7 cells assessed as proportion of early apoptotic cells at 5 uM incubated for 48 hrs by Annexin V Muse cell analyzer based flow cytometry (reference value: 3.05%); format: functional
[20] = system: MCF7; assay: Antiproliferative activity against human MCF-7 cells assessed as reduction in cell viability at 0.1 uM measured after 72 hrs in presence of CdSO4 by MTS assay; format: functional, cell-based
[21] = system: MCF7; assay: Induction of apoptosis in human MCF7 cells assessed as cytochrome c release into cytosol at 2.5 uM incubated for 24 hrs by immunoblot analysis; format: functional, cell-based
[22] = system: MCF7; assay: Induction of apoptosis in human MCF7 cells assessed as decrease in p21 expression at 2.5 uM incubated for 24 hrs by immunoblot analysis; format: functional, cell-based
[23] = system: MCF7; assay: Induction of apoptosis in human MCF-7 cells assessed as proportion of late apoptotic cells at 5 uM incubated for 48 hrs by Annexin V Muse cell analyzer based flow cytometry (reference value: 2.3%); format: functional
[24] = system: MCF7; assay: Induction of apoptosis in human MCF-7 cells assessed as proportion of viable cells at 1 uM incubated for 48 hrs by Annexin V Muse cell analyzer based flow cytometry (reference value: 94.2%); format: functional
[25] = system: MCF7; assay: Induction of apoptosis in human MCF-7 cells incubated for 48 hrs by Annexin V Muse cell analyzer based flow cytometry; format: functional; settings: dose 1-5 µM
[26] = system: MCF7; assay: Induction of cell cycle arrest in human MCF-7 cells assessed as increase in cell accumulation at G0/G1 phase incubated for 24 hrs by Muse cell analyzer based flow cytometry; format: functional; settings: dose 1-5 µM
[27] = system: MCF7; assay: Induction of cell cycle arrest in human MCF-7 cells assessed as accumulation at G0/G1 phase at 2.5 uM incubated for 24 hrs by Muse cell analyzer based flow cytometry (reference value: 47.4%); format: functional
[28] = system: MCF7; assay: Antiproliferative activity against human MCF-7 cells assessed as reduction in cell viability measured after 72 hrs in presence of CdSO4 by MTS assay; format: functional, cell-based; settings: MCF7, 72 h
[29] = system: MCF7; assay: Induction of apoptosis in human MCF-7 cells assessed as proportion of necrotic cells at 5 uM incubated for 48 hrs by Annexin V Muse cell analyzer based flow cytometry (reference value: 0.45%); format: functional
[30] = system: MCF7; assay: Induction of cell cycle arrest in human MCF-7 cells assessed as accumulation at S phase at 2.5 uM incubated for 24 hrs by Muse cell analyzer based flow cytometry (reference value: 11.1%); format: functional
[31] = system: MCF7; assay: Induction of apoptosis in human MCF-7 cells assessed as proportion of viable cells at 5 uM incubated for 48 hrs by Annexin V Muse cell analyzer based flow cytometry (reference value: 94.2%); format: functional
[32] = system: MCF7; assay: Induction of apoptosis in human MCF-7 cells assessed as proportion of viable cells at 2.5 uM incubated for 48 hrs by Annexin V Muse cell analyzer based flow cytometry (reference value: 94.2%); format: functional
[33] = system: MCF7; assay: Induction of cell cycle arrest in human MCF-7 cells assessed as accumulation at G0/G1 phase at 5 uM incubated for 24 hrs by Muse cell analyzer based flow cytometry (reference value: 47.4%); format: functional
[34] = system: MCF7; assay: Induction of cell cycle arrest in human MCF-7 cells assessed as accumulation at G2/M phase at 1 uM incubated for 24 hrs by Muse cell analyzer based flow cytometry (reference value: 36.9%); format: functional
[35] = system: MCF7; assay: Antiproliferative activity against human MCF-7 cells assessed as reduction in cell viability measured after 72 hrs in presence of CuSO4 by MTS assay; format: functional, cell-based; settings: MCF7, 72 h
[36] = system: MCF7; assay: Induction of ROS generation in human MCF7 cells at 1 uM measured after 1 hr by CellRox Green reagent/Hoechst 33342 staining based fluorescence analysis; format: functional, cell-based
[37] = system: MCF7; assay: Induction of apoptosis in human MCF7 cells assessed as late apoptotic cells by measuring condensed and fragmented nuclei formation at 5 uM incubated for 24 hrs by AO/EB staining based fluorescence microscopy; format: functional, cell-based
[38] = system: MCF7; assay: Induction of cell cycle arrest in human MCF-7 cells assessed as accumulation at S phase at 5 uM incubated for 24 hrs by Muse cell analyzer based flow cytometry (reference value: 11.1%); format: functional
[39] = system: MCF7; assay: Potency index, ratio of doxorubicin IC50 to test compound IC50 for anticancer activity against human MCF7 cells measured after 72 hrs by MTS assay; format: functional
[40] = system: MCF7; assay: Antiproliferative activity against human MCF-7 cells assessed as reduction in cell viability measured after 72 hrs in presence of ZnCl2 by MTS assay; format: functional, cell-based; settings: MCF7, 72 h
[41] = system: MCF7; assay: Induction of apoptosis in human MCF-7 cells assessed as proportion of early apoptotic cells at 1 uM incubated for 48 hrs by Annexin V Muse cell analyzer based flow cytometry (reference value: 3.05%); format: functional
[42] = system: MCF7; assay: Antiproliferative activity against human MCF-7 cells assessed as reduction in cell viability measured after 72 hrs in presence of FeSO4 by MTS assay; format: functional, cell-based; settings: MCF7, 72 h
[43] = system: MCF7; assay: Induction of ROS generation in human MCF7 cells at 1 uM measured after 24 hrs by CellRox Green reagent/Hoechst 33342 staining based fluorescence analysis relative to control; format: functional
[44] = system: MCF7; assay: Antiproliferative activity against human MCF-7 cells assessed as reduction in cell viability at 0.1 uM measured after 72 hrs in presence of FeSO4 by MTS assay; format: functional, cell-based
[45] = system: MCF7; assay: Antiproliferative activity against human MCF-7 cells assessed as reduction in cell viability at 0.1 uM measured after 72 hrs in presence of ZnCl2 by MTS assay; format: functional, cell-based
[46] = system: MCF7; assay: Induction of apoptosis in human MCF-7 cells assessed as proportion of necrotic cells at 1 uM incubated for 48 hrs by Annexin V Muse cell analyzer based flow cytometry (reference value: 0.45%); format: functional
[47] = system: MCF7; assay: Antiproliferative activity against human MCF-7 cells assessed as reduction in cell viability at 0.1 uM measured after 72 hrs in presence of CuSO4 by MTS assay; format: functional, cell-based
[48] = system: MCF7; assay: Induction of cell cycle arrest in human MCF-7 cells assessed as accumulation at G2/M phase at 5 uM incubated for 24 hrs by Muse cell analyzer based flow cytometry (reference value: 36.9%); format: functional
[49] = system: NHDF; assay: Cytotoxicity against human NHDF cells assessed as reduction in cell viability measured after 72 hrs by MTS assay; format: cell-based
[50] = system: MCF7; assay: Antiproliferative activity against human MCF-7 cells assessed as reduction in cell viability at 0.1 uM measured after 72 hrs in presence of FeCl3 by MTS assay; format: functional, cell-based
[51] = system: DNA; assay: Induction of Escherichia coli supercoiled pUC19 plasmid DNA cleavage assessed as linear form formation at 50 uM incubated for 60 mins by agarose gel electrophoresis analysis; format: nucleic-acid assay
[52] = system: Calf thymus DNA; assay: Binding affinity to calf thymus DNA assessed as DNA intercalation by measuring bathochromic shift incubated for 1.5 hrs by spectrophotometric analysis; format: tissue-based; settings: Bos taurus
[53] = system: MCF7; assay: Induction of cell cycle arrest in human MCF-7 cells assessed as accumulation at G2/M phase at 2.5 uM incubated for 24 hrs by Muse cell analyzer based flow cytometry (reference value: 36.9%); format: functional
[54] = system: HCT-116; assay: Antiproliferative activity against human HCT 116 cells assessed as reduction in cell viability measured after 72 hrs by MTS assay; format: functional, cell-based; settings: HCT-116, 72 h

COc1cccc2c1C(=O)c1c(O)c3c(c(O)c1C2=O)C[C@@](O)(C(=O)CO)C[C@@H]3O[C@H]1C[C@H](N)[C@H](O)[C@H](C)O1 [DOXORUBICIN] showed an IC50 [1] of 50 nM, an IC50 [2] of 410 nM and an IC50 [3] of 730 nM. It also gave an Activity [4] of 34.2% and an IC50 [5] of 1060 nM.

With CCCCCCCCCCn1cc(-c2ccc(-c3cc(-c4ccccn4)nc(-c4ccccn4)c3)cc2)nn1 the Activity [6] was 8.95%, the Activity [7] was “Active” and the IC50 [1] was 140 nM. For the same compound, the Activity [8] was “Active”, the Activity [9] was 8.55% and the IC50 [2] was 40 nM. For the same compound, the Activity [10] was 4.9%, the Drug uptake [11] was “Active” and the IC50 ([3]; read-out: IC50) was 440 nM. For the same compound, the Activity [12] was 16.25%, the Activity [13] was “Active” and the Activity [14] was 16.3%. For the same compound, the Activity [15] was “inactive”, the Activity [16] was 45.5% and the IC50 [17] was 1000 nM. For the same compound, the “Ratio IC50” value [18] was 26, the Activity [19] was 30.2% and the Activity [4] was 18.2%. For the same compound, the Activity [20] was “Active”, the Activity [21] was “Active” and the Activity [22] was “Active”. The Activity [23] was 15.3%, the Activity [24] was 79.1% and the Activity [25] was “Dose-dependent effect”. For the same compound, the Activity [26] was “Dose-dependent effect”, the Activity [27] was 57.4% and the IC50 [28] was 1000 nM. For the same compound, the Activity [29] was 6.9%, the Activity [30] was 13.7% and the Activity [31] was 47.6%. The Activity [32] was 69.9%, the Activity [33] was 66.2% and the Activity [34] was 34.3%. For the same compound, the IC50 [35] was 39 nM, the Activity [36] was “Active” and the Activity [37] was “Active”. For the same compound, the Activity [38] was 14.3%, the “Ratio IC50” value [39] was 10 and the IC50 [40] was 1000 nM. The Activity [41] was 3.45%, the IC50 [42] was 1000 nM and the Activity [43] was 140%. The Activity [44] was “Active”, the Activity [45] was “Active” and the Activity [46] was 8.9%. For the same compound, the Activity [47] was “Active”, the Activity [48] was 24% and the IC50 [49] was 20800 nM. For the same compound, the Activity [50] was “Active”, the Activity [51] was “Active” and the Activity [52] was “Active”. For the same compound, the Activity [53] was 25.2%, the IC50 [5] was 750 nM and the IC50 [54] was 270 nM.
